Source: the supplement of paper PMC5412046
Structures can show the parent of a compound that is named as a salt.

Key:
[1] = test system: SB.msgc-1; test: viability at highest tested concentration (MAXR) relative to DMSO; higher = less cytotoxic; conditions: SB.msgc-1 (sporadic gastric cancer)
In short: (§1)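 Gastric cancer cells derived from hereditary or sporadic patients were treated for 48 h with compound at 11 threefold dilutions, with the top concentration recorded per compound. Viability was then read by CellTiter-Glo luminescence. Data are viability normalised to DMSO, at the highest concentration or as trapezoidal area under the curve.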

[2] = test system: SB.mhdgc-1; test: as above; conditions: SB.mhdgc-1 (hereditary c.1380delA CDH1 gastric cancer)
In short: as §1

[3] = test system: SB.msgc-1; test: area under the dose-response curve of % viability (trapezoidal, 11 doses) (% viability x log10 concentration); higher = less cytotoxic; conditions: SB.msgc-1 (sporadic gastric cancer)
In short: as §1

[4] = test system: SB.mhdgc-1; test: as above; conditions: SB.mhdgc-1 (hereditary c.1380delA CDH1 gastric cancer)
In short: as §1

| SMILES | viability [1] [%] | viability [2] [%] | area under the dose-response curve [3] | area under the dose-response curve [4] |
| --- | --- | --- | --- | --- |
| CCCCCN(CCC12CC3CC(CC(C3)C1)C2)C(=O)NCCCc1ccncc1 [DE-096] (top concentration 46.0829 µM) | 23.2 | 2.93 | 476 | 536 |
| Cn1c(CNc2ccc(C(=N)N)cc2)nc2cc(C(=O)N(CCC(=O)O)c3ccccn3)ccc21 [Dabigatran] (top concentration 23.0415 µM) | 65 | 28.4 | 526 | 470 |
| CC(C)(C)c1nc(-c2cccc(N[S+](=O)([O-])c3c(F)cccc3F)c2F)c(-c2ccnc(N)n2)s1 [Dabrafenib] (top concentration 46.0829 µM) | 38.3 | 15 | 484 | 442 |
| CN(C)/N=N/c1nc[nH]c1C(N)=O [Dacarbazine] (top concentration 46.0829 µM) | 91.1 | 113 | 541 | 563 |
| O=C(/C=C/c1ccc(CN(CCO)CCc2c[nH]c3ccccc23)cc1)NO [Dacinostat] (top concentration 46.0829 µM) | 7.9 | 4.22 | 282 | 357 |
| COC(=O)N[C@H](C(=O)N1CCC[C@H]1c1ncc(-c2ccc(-c3ccc(-c4cnc([C@@H]5CCCN5C(=O)[C@@H](NC(=O)OC)C(C)C)[nH]4)cc3)cc2)[nH]1)C(C)C [Daclatasvir dihydrochloride] (top concentration 46.0829 µM) | 4.16 | 3.05 | 541 | 488 |
| COc1cc2ncnc(Nc3ccc(F)c(Cl)c3)c2cc1NC(=O)/C=C/CN1CCCCC1 [Dacomitinib] (top concentration 46.0829 µM) | 0.19 | 1.99 | 230 | 425 |
| O=c1c(-c2ccc(O)cc2)coc2cc(O[C@@H]3O[C@H](CO)[C@@H](O)[C@H](O)[C@H]3O)ccc12 [Daidzin] (top concentration 46.0829 µM) | 99.1 | 124 | 498 | 531 |
| CN(C)NC(=O)CCC(=O)O [Daminozide] (top concentration 46.0829 µM) | 88 | 100 | 498 | 518 |
| CC(C)(C)OC(=O)N[C@H]1CCCCC/C=C\[C@@H]2C[C@@]2(C(=O)N[S+](=O)([O-])C2CC2)NC(=O)[C@@H]2C[C@@H](OC(=O)N3Cc4cccc(F)c4C3)CN2C1=O [Danoprevir] (top concentration 46.0829 µM) | 101 | 104 | 557 | 492 |
| CO[C@@H](C(=O)N1Cc2[nH]nc(NC(=O)c3ccc(N4CCN(C)CC4)cc3)c2C1)c1ccccc1 [Danusertib] (top concentration 46.0829 µM) | 26.3 | 23.2 | 469 | 387 |
| CCOc1ccc(Cc2cc([C@@H]3O[C@H](CO)[C@@H](O)[C@H](O)[C@H]3O)ccc2Cl)cc1 [Dapagliflozin] (top concentration 46.0829 µM) | 49.2 | 40.5 | 524 | 500 |
| OC1=C(O)C2=C(\C=C/C(=O)O2)C=C1 [Daphnetin] (top concentration 46.0829 µM) | 61.4 | 72.2 | 535 | 468 |
| O=C(/C=C/c1cccnc1)NCCCCC1CCN(C(=O)c2ccccc2)CC1 [Daporinad] (top concentration 46.0829 µM) | 42.8 | 41.7 | 419 | 264 |
| CN(C)[C@@H](CCOc1cccc2ccccc12)c1ccccc1 [Dapoxetine hydrochloride] (top concentration 46.0829 µM) | 47 | 15.4 | 516 | 463 |
| CCCCCCCCCC(=O)N[C@@H](Cc1c[nH]c2ccccc12)C(=O)N[C@H](CC(N)=O)C(=O)N[C@@H](CC(=O)O)C(=O)N[C@@H]1C(=O)NCC(=O)N[C@@H](CCCN)C(=O)N[C@@H](CC(=O)O)C(=O)N[C@H](C)C(=O)N[C@@H](CC(=O)O)C(=O)NCC(=O)N[C@H](CO)C(=O)N[C@@H]([C@@H](C)CC(=O)O)C(=O)N[C@@H](CC(=O)c2ccccc2N)C(=O)O[C@@H]1C [Daptomycin] (top concentration 46.0829 µM) | 112 | 119 | 531 | 573 |
| Cc1nc(Nc2ncc(C(=O)Nc3c(C)cccc3Cl)s2)cc(N2CCN(CCO)CC2)n1 [Dasatinib] (top concentration 46.0829 µM) | 37.8 | 53.2 | 398 | 416 |
| COc1cccc2c1C(=O)c1c(O)c3c(c(O)c1C2=O)C[C@@](O)(C(C)=O)C[C@@H]3O[C@H]1C[C@H](N)[C@H](O)[C@H](C)O1 [Daunorubicin] (top concentration 46.0829 µM) | 59.5 | 19.5 | 419 | 337 |
| C[C@@H]1C[C@H]2[C@@H]3\C=C(C)/C4=C/C5=C(C[C@]4(C)[C@H]3[C@@H](O)C[C@]2(C)[C@@]1(O)C(=O)CO)C=N[N]5C6=CC=CC=C6 [Deacetyl cortivazol] (top concentration 46.0829 µM) | 27.5 | 20.9 | 508 | 391 |
| NC\1=N\C(=O)N(\C=N1)[C@H]2C[C@H](O)[C@@H](CO)O2 [Decitabine] (top concentration 46.0829 µM) | 98.7 | 63.1 | 480 | 481 |
| O=C(O)c1ccc(-n2nc(-c3ccccc3O)nc2-c2ccccc2O)cc1 [Deferasirox] (top concentration 46.0829 µM) | 39.1 | 58.3 | 478 | 536 |

| SMILES | viability [1] [%] | viability [2] [%] | area under the dose-response curve [3] | area under the dose-response curve [4] |
| --- | --- | --- | --- | --- |
| CC(=O)OCC(=O)[C@@]12\N=C(C)/O[C@@H]1C[C@H]3[C@@H]4CCC/5=C/C(=O)/C=C\[C@]5(C)[C@H]4[C@@H](O)C[C@]23C [Deflazacort] (top concentration 46.0829 µM) | 105 | 97.3 | 552 | 489 |
| CCC[C@H](NC(=O)/C(C#N)=C/c1cccc(Br)n1)c1ccccc1 [Degrasyn] (top concentration 46.0829 µM) | 1.04 | 7.59 | 404 | 464 |
| COC1=CC2=C(C=C1OC)[C@H]3[C@@H](CO2)OC4=C(C=CC5=C4\C=C/C(C)(C)O5)C3=O [Deguelin] (top concentration 46.0829 µM) | 22.6 | 8.16 | 338 | 424 |
| C[C@]12CC[C@H]3[C@@H](C\C=C/4C[C@@H](O)CC[C@]34C)[C@@H]1CCC2=O [Dehydroepiandrosterone] (top concentration 46.0829 µM) | 38.2 | 32 | 530 | 465 |
| CC(C)C[C@H](NC(=O)[C@@H](NC(=O)c1cccc(-c2ccccc2)n1)[C@@H](C)O)B(O)O [Delanzomib] (top concentration 46.0829 µM) | 1.1 | 1.09 | 184 | 198 |
| CN[C@H]1CCC2=CC(=C(OC)C(=C2C/3=C/C=C(OC)\C(=O)/C=C13)OC)OC [Demecolcine] (top concentration 46.0829 µM) | 40 | 33.3 | 246 | 278 |
| CC1(C)O[C@@H]2C[C@H]3[C@@H]4CCC5=CC(=O)C=C[C@]5(C)[C@H]4[C@@H](O)C[C@]3(C)[C@]2(C(=O)CO)O1 [Desonide] (top concentration 46.0829 µM) | 108 | 111 | 523 | 508 |
| C[C@H]1C[C@H]2[C@@H]3CCC4=CC(=O)C=C[C@]4(C)[C@@]3(F)[C@@H](O)C[C@]2(C)[C@@]1(O)C(=O)CO [Dexamethasone] (top concentration 46.0829 µM) | 118 | 120 | 558 | 556 |
| C[C@@H](CN1CC(=O)NC(=O)C1)N1CC(=O)NC(=O)C1 [Dexrazoxane hydrochloride] (top concentration 46.0829 µM) | 73.3 | 33.7 | 491 | 384 |
| COc1ccc2c(c1)[C@]13CCCCC1C(C2)N(C)CC3 (stereo partly drawn) [Dextromethorphan hydrobromide] (top concentration 46.0829 µM) | 98.4 | 85.6 | 520 | 557 |
| ClC1=CC=C(C=C1)C(C#N)C2=C(Cl)C=C(C=C2Cl)N3\N=C/C(=O)NC3=O (stereo not drawn) [Diclazuril] (top concentration 46.0829 µM) | 61 | 8.68 | 511 | 538 |
| O=C([O-])Cc1ccccc1Nc1c(Cl)cccc1Cl [Diclofenac sodium] (top concentration 46.0829 µM) | 104 | 39.2 | 626 | 555 |
| N[S+](=O)([O-])c1cc(Cl)c(Cl)c([S+](N)(=O)[O-])c1 [Diclofenamide] (top concentration 46.0829 µM) | 118 | 112 | 575 | 592 |
| COc1ccc2c(c1)CN(C)CC2c1ccc(Cl)c(Cl)c1 (stereo not drawn) [Diclofensine] (top concentration 46.0829 µM) | 69.1 | 78.4 | 518 | 526 |
| O=c1[nH]cnc2c1ncn2[C@H]1CC[C@@H](CO)O1 [Didanosine] (top concentration 46.0829 µM) | 61.5 | 3.57 | 470 | 564 |
| C/C=C(/C(=C/C)c1ccc(O)cc1)c1ccc(O)cc1 [Dienestrol] (top concentration 46.0829 µM) | 70.9 | 34.3 | 457 | 527 |
| C[C@]12CCC\3=C\4CCC(=O)\C=C4CC[C@H]3[C@@H]1CC[C@@]2(O)CC#N [Dienogest] (top concentration 46.0829 µM) | 115 | 109 | 575 | 526 |
| CC/C(=C(/CC)c1ccc(O)cc1)c1ccc(O)cc1 [Diethylstilbestrol] (top concentration 46.0829 µM) | 39 | 10.1 | 448 | 404 |
| C[C@H]1O[C@H](C[C@H](O)[C@@H]1O)O[C@H]2[C@@H](O)C[C@@H](O[C@@H]2C)O[C@H]3[C@@H](O)C[C@@H](O[C@@H]3C)O[C@H]4CC[C@@]5(C)[C@H](CC[C@@H]6[C@@H]5C[C@@H](O)[C@]7(C)[C@H](CC[C@]67O)C/8=C/C(=O)OC8)C4 [Digoxin] (top concentration 92.1659 µM) | 49.9 | 21.9 | 377 | 343 |
| O=C1c2c(O)cc(O)cc2O[C@H](c2cc(O)c(O)c(O)c2)[C@H]1O [Dihydromyricetin] (top concentration 46.0829 µM) | 62.8 | 19.1 | 512 | 460 |
| c1ccc2c(Cc3c[nH]c4ccccc34)c[nH]c2c1 [Diindolylmethane] (top concentration 46.0829 µM) | 0.925 | 2.05 | 241 | 351 |
